ChEMBL document CHEMBL1201862, “PubChem BioAssay data set” (2004)
Calls of active or inactive are those of the source.

Experiments:
HEK293 = assay: EBV LMP1 TES2 canonical NF-kB signalling blockers – cell-based, HEK293, luciferase, cherry-pick, dose response (AID 588343); format: functional; conditions: Homo sapiens
[1] = Fluorescence-based cell-based high throughput dose response assay for inhibitors of the interaction of nucleotide-binding oligomerization domain containing 2 (NOD2) and the receptor-interacting serine-threonine kinase 2 (RIPK2).; format: functional; conditions: Homo sapiens
[2] = biological target: T1, Rac GTPase-activating protein 1 (Homo sapiens, UniProt Q9H0H5); assay: blockers of MgcRacGAP-driven Rac1 GTP hydrolysis – biochemical, ADP Hunter fluorescence, primary and confirmatory, confirmation (AID 624330); format: functional
T1 sequence (Q9H0H5 whole entry): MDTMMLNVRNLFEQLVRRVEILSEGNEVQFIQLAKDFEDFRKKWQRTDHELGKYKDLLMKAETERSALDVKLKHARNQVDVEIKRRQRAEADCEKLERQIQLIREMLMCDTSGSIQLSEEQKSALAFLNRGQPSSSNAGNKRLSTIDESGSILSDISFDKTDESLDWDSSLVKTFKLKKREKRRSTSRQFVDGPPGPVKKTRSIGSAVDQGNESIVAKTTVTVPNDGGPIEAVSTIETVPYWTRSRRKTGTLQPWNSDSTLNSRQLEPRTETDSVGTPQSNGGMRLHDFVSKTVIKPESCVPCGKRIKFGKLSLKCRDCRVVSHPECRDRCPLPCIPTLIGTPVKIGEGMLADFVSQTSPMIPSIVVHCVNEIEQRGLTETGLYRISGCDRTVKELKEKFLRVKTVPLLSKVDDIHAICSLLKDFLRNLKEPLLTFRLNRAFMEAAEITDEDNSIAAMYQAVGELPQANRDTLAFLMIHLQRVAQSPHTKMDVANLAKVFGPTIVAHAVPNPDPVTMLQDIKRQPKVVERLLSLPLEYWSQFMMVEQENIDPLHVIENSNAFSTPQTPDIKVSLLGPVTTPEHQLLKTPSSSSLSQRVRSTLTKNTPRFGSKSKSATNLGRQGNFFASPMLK

[3] = biological target: T2, Microphthalmia-associated transcription factor (Homo sapiens, UniProt O75030); assay: reducers of TRPM1 reporter luminescence, concentration series – cell-based, SK-MEL-5, cherry-picked, set 3, MITF inhibitor project, dose response (AID 493073); format: functional;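 also: SK-MEL-5 melanoma cells with luciferase driven by the MITF target TRPM1 promoter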
T2 sequence (O75030 whole entry): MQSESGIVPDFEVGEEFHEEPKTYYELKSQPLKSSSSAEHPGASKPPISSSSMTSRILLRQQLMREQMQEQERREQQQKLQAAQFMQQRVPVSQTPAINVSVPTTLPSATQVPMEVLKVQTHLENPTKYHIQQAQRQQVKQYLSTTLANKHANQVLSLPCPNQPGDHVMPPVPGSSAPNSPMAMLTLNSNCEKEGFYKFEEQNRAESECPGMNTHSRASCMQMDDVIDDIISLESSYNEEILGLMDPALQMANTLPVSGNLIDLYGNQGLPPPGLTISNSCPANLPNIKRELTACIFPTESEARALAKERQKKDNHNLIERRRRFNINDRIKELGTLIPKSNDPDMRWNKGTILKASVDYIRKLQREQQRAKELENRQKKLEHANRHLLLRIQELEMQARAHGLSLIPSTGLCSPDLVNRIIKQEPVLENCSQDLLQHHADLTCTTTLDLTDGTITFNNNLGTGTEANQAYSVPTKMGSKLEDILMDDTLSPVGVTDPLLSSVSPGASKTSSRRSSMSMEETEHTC

[4] = Luminescence-based counterscreen assay for KLF5 inhibitors: dose response cell-based high throughput screening assay to identify cytotoxic compounds using the IEC-6 intestinal epithelial cell line. [Related pubchem assays: 1700 (Primary screen.), 1834 (Confirmation screen.), 1858 (Summary AID.), 1905 (Counterscreen.)]; format: functional
INS1 = assay: INS-1E survival protection against cytokine death – cell-based, luminescence, retest, dose response (AID 449756); format: functional; conditions: Rattus norvegicus, INS1;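 also: cell death triggered by IL-1 beta plus TNF-alpha plus IFN-gamma mixture; protective hits raise ATP signal compared with cytokine alone wells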
[5] = system: Streptococcus sp. 'group A'; assay: Streptococcus pyogenes SK(-)GAS viability under kanamycin – luminescence, BacTiterGlo, confirmation, counter-screen for streptokinase expression inhibitor project, dose response (AID 1900); format: functional, organism-based
Nonstructural protein 1 = Nonstructural protein 1 (Influenza A virus, UniProt Q194T2); format: functional, Influenza A virus (A/California/07/2009(H1N1))
Nonstructural protein 1, sequence (Q194T2 whole entry): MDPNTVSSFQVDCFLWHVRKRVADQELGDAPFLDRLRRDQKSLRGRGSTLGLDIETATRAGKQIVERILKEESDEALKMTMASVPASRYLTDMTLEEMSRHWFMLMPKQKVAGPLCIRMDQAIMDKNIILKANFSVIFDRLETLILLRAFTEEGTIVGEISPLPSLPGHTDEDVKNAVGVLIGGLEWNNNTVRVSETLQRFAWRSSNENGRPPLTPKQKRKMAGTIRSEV

[6] = biological target: T3, Latent membrane protein 1 (Human herpesvirus 4 (strain B95-8), UniProt P03230); assay: LMP1 TES1 pathway selectivity over dsRED control – imaging, HEK293T, dual-color eGFP/dsRED, cherry-picks, selectivity assay for LMP1 NF-kB inhibitor project, dose response (AID 588398); format: functional, cell-based
T3 sequence (P03230 whole entry): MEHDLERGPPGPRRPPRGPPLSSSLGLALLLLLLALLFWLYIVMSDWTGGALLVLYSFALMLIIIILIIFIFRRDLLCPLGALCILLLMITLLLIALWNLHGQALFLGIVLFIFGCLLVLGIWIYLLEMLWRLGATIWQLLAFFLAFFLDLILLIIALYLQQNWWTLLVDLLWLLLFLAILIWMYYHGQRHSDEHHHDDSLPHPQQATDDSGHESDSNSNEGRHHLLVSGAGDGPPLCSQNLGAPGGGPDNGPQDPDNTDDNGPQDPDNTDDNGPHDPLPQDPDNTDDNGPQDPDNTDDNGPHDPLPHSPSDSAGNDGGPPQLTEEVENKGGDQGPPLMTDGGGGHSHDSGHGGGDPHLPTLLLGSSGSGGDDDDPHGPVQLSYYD

Streptococcus = assay: GAS UMAA2166 growth inhibition – luminescence, BacTiterGlo, counter-screen for streptokinase expression inhibitor project, dose response (AID 1915); format: functional, organism-based;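 also: potency for reduction of bacterial viability or growth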
[7] = intracellular Trypanosoma cruzi inhibitors in host cells – cell-based, plate reader, cherry-pick samples, set 3, dose response (AID 651818); format: functional;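 also: compounds incubated with infected cells for about four days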
[8] = biological target: Mitochondrial peptide methionine sulfoxide reductase (Bos taurus, UniProt P54149); format: functional;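 also: absorbance read-out, biochemical high-throughput dose-response screen for MsrA inhibitors, confirmatory; recombinant bovine MsrA coupled to E. coli TrxB with NADPH and selenocystamine; potency is for inhibitors of MsrA activity on DMSO substrate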
Mitochondrial peptide methionine sulfoxide reductase, sequence (P54149 whole entry): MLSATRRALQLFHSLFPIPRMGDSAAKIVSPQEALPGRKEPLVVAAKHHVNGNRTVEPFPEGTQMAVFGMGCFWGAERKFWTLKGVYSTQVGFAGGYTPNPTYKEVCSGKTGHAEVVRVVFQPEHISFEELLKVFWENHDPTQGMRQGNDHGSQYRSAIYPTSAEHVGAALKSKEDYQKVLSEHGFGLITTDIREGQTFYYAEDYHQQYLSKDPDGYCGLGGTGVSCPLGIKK

CCN(CC)CCC(=O)N1C/C(=C/c2ccccc2)C(=O)/C(=C\c2ccccc2)C1
AC50 (HEK293): 4.89 µM (active) | IC50 [1]: 3.5 µM (active) | IC50 [2]: 111 µM (active) | AC50 [3]: 4.72 µM (active)

O=C(N/N=C/c1cc(Cl)ccc1O)c1cccnc1
IC50 [4]: > 1.48 µM (active) | AC50 (INS1): 1.71 µM (active) | EC50 [5]: 1.81 µM (active) | IC50 (Nonstructural protein 1): 5.8 µM (active) | AC50 [6]: 128 µM (active) | EC50 (Streptococcus): 7.97 µM (active)

C[C@H](CO)N1C[C@H](C)[C@H](CN(C)Cc2ccc3c(c2)OCO3)Oc2c(NC(=O)c3nc4ccccc4s3)cccc2C1=O
AC50 [7]: 4.58 µM (active)

C[C@@H]1CN([C@@H](C)CO)C(=O)Cc2cc(NC(=O)Nc3ccc(F)cc3)ccc2O[C@@H]1CN(C)Cc1ccc(C(=O)Nc2ccccc2N)cc1
AC50 [7]: 2.16 µM (active)

CCOC(=O)/C(C#N)=C/C(C(=N)N1CCN(c2ccc(OC)cc2)CC1)=C(/O)OCC
IC50 [8]: 139 µM (inactive)

CCOC(=O)/C(C#N)=C/Nc1ccccc1OC
IC50 [8]: 155 µM (inactive)
